Assay results reported in paper PMC7774954, “Interactomic affinity profiling by holdup assay: Acetylation and distal residues impact the PDZome-binding specificity of PTEN phosphatase” (PLoS ONE, 2020).
*1 amine or outer side, *2 acyl side, *3 side chain or, on linkers, in order; H or OH if unused. Where a SMILES comes first, the peptide text is derived from it. The star is where a group is joined. X1 = O=C(CCCC[C@@H]1SC[C@@H]2NC(=O)N[C@@H]21)NCCCOCCOCCOCCCN*; Suc = O=C(CCC(=O)[*:2])[*:1]

Tests used:
NHERF2 PDZ 1 = molecular target: T1, NHERF2 PDZ 1 (Homo sapiens, UniProt Q15599); test: Holdup assay, NHERF2-1; format: binding; settings: PDZ domain NHERF2-1
T1 construct: made in house; host or cells: E. coli
Procedure: (§1) The holdup assay was performed on a Tecan freedom Evo200 robot with 384-well plates in singlicate for the three 11-mer PTEN variants and the 13-mer PTEN peptide as described in [31, 32]. Briefly, prior to interaction assay, 2.5 μL of streptavidin resin was saturated in each well with 20 μL of biotinylated PBM peptides (42 μM) and then washed twice with an excess of free biotin, while the reference resin was incubated only with biotin. Right before the holdup experiment, the PDZ library was spiked with an internal standard of lysozyme. Then, the biotin- or PBM-saturated resin was incubated, each in a distinct well of a 384-well plate, with complete cell lysates diluted so that the concentration of the tag-PDZ present in the crude extract is adjusted at 4 μM. After a sufficient time to reach complex equilibrium (15 min.), a fast and mild filtration step is performed and the tag-PDZ concentrations were measured by capillary electrophoresis instrument (LabChip GXII, PerkinElmer, Massachusets, USA). Standard markers were used to convert migration time into molecular weight on the LabChip software and inappropriate molecular weight markers were corrected or excluded.
(§2) For filtered data, the BI was extracted with the following equation (Eq 1) that estimates the depleted fraction after superimposition of the sample and reference electropherograms: BI=Iref−Ilig/Iref (1) where Iref and Ilig are the intensities of the tag-PDZ peaks measured, for each PDZ domain/PBM peptide interaction pair, in the biotin reference and the PBM electropherograms, respectively.
(§3) BIs were transformed into dissociation constants (KD) using the following formula: KD=([PDZtot]−BI·[PDZtot])·([PBMtot]−BI·[PDZtot])/BI·[PDZtot] (2) where [PDZtot] and [PBMtot] correspond to the total concentrations of the PDZ domain (usually around 4 μM) and the PBM peptide used during the assay. Since the PBMtot concentration in the resin during the holdup assay parameter may differ from one peptide to another and remains unknown, it is impossible to directly convert BI values into KD constants. We systematically determined the KD constants for a subset of PDZ/PBM pairs by competitive FP. […] For each PBM, the average peptide concentration was calculated after outlier rejection based on the absolute distances from the median as compared to three times the standard deviation (3σ rule), with never more than 2 values rejected.

MAGI2-1 = test: Holdup assay, MAGI2-1; format: binding, human
INADL-9 = test: Holdup assay, INADL-9; format: binding, human
DLG4-2 = DLG4-2 (Homo sapiens, UniProt P78352); test: Holdup assay, DLG4-2; format: binding
NHERF2 PDZ 2 = molecular target: T2, NHERF2 PDZ 2 (Homo sapiens, UniProt Q15599); test: Holdup assay, NHERF2-2; format: binding; settings: for BI: PDZ domain NHERF2-2 (gene MPDZ, 9)
T2 construct: made in house; host or cells: E. coli
Procedure: as §1, §2, §3

DLG3-1 = test: Holdup assay, DLG3-1; format: binding, human
GRIP2-1 = test: Holdup assay, GRIP2-1; format: binding, human
INADL-3 = test: Holdup assay, INADL-3; format: binding, human
GRIP2-7 = test: Holdup assay, GRIP2-7; format: binding, human
DLG5-3 = test: Holdup assay, DLG5-3; format: binding, human
MAGIX-1 = test: Holdup assay, MAGIX-1; format: binding, human
DLG1-3 = test: Holdup assay, DLG1-3; format: binding, human
IL16-2 = test: Holdup assay, IL16-2; format: binding, human
IL16-1 = test: Holdup assay, IL16-1; format: binding, human
PARD3 PDZ 3 = molecular target: T3, PARD3 PDZ 3 (Homo sapiens, UniProt Q8TEW0); test: Holdup assay, PARD3-3; format: binding; settings: for KD (affinity measured by holdup): PARD3 PDZ 3, singlicate, BI converted to KD, tag-PDZ 4 μM, 15 min, nd: not detected in the holdup assay; for BI: PDZ domain PARD3-3
T3 construct: made in house; host or cells: E. coli
Procedure: as §1, §2, §3

SNX27 PDZ 1 = molecular target: T4, SNX27 PDZ 1 (Homo sapiens, UniProt Q96L92); test: Holdup assay, SNX27-1; format: binding; settings: for BI: PDZ domain SNX27-1
T4 construct: made in house; host or cells: E. coli
Procedure: as §1, §2, §3

LIN7C-1 = test: Holdup assay, LIN7C-1; format: binding, human
GRIP1-4 = test: Holdup assay, GRIP1-4; format: binding, human
FRMPD4-1 = test: Holdup assay, FRMPD4-1; format: binding, human
HTRA2-1 = test: Holdup assay, HTRA2-1; format: binding, human
MAST1 PDZ 1 = molecular target: T5, MAST1 PDZ 1 (Homo sapiens, UniProt Q9Y2H9); test: Holdup assay, MAST1-1; format: binding; settings: for BI: MAST1-1
T5 construct: made in house; host or cells: E. coli
T5 sequence (Q9Y2H9 967-1055 limits assumed): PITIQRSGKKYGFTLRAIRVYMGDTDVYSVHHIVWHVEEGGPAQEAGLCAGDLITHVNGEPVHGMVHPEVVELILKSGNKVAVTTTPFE
Procedure: as §1, §2, §3

ARHGEF11-1 = molecular target: T6, ARHGEF11-1 (Homo sapiens, UniProt O15085); test: Holdup assay, ARHGEF11-1; format: binding
T6 sequence (O15085 47-126): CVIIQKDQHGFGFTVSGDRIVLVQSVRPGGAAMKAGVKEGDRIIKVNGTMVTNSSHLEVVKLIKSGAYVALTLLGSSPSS

INADL-8 = INADL-8 (Homo sapiens, UniProt Q8NI35); test: Holdup assay, INADL-8; format: binding
INADL-2 = test: Holdup assay, INADL-2; format: binding, human
LNX1-2 = molecular target: T7, LNX1-2 (Homo sapiens, UniProt Q8TBB1); test: Holdup assay, LNX1-2; format: binding
T7 sequence (Q8TBB1 385-467): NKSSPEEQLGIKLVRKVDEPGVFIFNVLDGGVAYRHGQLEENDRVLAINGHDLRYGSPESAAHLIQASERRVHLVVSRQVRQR

Sequence of DLG4-2 (P78352 160-246): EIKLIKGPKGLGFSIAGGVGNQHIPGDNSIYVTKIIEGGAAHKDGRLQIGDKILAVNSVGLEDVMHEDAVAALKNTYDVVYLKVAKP
T3 sequence (Q8TEW0 590-677 limits assumed): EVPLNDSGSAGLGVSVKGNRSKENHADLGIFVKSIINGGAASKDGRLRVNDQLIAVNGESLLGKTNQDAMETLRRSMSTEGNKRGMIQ
T1 sequence (Q15599 11-90 limits assumed): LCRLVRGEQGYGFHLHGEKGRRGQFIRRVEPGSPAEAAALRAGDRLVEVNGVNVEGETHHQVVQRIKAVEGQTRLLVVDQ
Sequence of INADL-8 (Q8NI35 whole entry): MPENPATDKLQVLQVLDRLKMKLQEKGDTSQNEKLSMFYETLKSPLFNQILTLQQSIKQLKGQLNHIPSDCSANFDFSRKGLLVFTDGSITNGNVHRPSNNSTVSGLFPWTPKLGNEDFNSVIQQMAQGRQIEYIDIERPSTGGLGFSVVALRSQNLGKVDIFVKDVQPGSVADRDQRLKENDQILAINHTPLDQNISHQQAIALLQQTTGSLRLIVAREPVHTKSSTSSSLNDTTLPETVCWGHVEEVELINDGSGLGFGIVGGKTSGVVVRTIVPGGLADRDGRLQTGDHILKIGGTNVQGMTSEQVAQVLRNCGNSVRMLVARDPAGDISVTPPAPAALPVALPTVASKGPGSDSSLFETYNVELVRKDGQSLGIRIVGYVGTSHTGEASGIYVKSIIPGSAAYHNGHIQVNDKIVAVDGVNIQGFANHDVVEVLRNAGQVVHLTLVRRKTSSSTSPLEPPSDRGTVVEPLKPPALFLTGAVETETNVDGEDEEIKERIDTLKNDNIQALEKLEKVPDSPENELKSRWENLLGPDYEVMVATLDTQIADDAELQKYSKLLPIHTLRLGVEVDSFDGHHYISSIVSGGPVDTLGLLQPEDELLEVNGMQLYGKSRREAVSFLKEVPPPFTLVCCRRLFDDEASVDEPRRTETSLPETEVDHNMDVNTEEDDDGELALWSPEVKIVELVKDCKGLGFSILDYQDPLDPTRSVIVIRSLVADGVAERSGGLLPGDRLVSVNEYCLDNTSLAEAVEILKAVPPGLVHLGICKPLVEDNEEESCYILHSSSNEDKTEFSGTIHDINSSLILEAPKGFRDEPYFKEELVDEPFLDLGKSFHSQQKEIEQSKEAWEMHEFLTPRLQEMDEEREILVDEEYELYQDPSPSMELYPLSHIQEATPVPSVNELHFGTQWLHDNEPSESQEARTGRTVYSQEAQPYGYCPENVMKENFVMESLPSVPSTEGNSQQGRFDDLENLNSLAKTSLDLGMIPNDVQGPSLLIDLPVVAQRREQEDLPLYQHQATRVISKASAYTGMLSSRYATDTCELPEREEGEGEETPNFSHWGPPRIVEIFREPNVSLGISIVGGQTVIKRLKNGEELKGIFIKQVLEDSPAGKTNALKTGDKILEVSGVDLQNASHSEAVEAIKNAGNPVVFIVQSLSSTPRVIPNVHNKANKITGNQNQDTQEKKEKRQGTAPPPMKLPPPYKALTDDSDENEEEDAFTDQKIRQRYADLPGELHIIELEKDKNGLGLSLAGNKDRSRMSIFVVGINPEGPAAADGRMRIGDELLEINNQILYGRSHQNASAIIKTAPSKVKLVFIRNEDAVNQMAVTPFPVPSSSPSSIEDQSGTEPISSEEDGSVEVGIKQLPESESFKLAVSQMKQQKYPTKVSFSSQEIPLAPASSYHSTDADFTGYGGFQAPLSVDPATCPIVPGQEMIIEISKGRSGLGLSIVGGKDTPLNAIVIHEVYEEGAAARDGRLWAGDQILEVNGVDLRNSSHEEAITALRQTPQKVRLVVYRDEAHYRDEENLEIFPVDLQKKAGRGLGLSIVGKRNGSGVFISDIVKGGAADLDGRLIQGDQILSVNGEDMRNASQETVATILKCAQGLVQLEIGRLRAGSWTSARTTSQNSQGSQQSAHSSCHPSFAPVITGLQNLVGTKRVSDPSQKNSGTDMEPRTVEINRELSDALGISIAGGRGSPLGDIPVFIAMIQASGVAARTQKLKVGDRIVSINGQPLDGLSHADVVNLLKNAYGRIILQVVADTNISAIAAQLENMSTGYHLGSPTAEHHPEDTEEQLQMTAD
T2 sequence (Q15599 150-230 limits assumed): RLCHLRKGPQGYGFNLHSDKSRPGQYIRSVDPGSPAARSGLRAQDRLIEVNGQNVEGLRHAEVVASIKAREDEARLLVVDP

## CC[C@H](C)[C@H](NC(=O)[C@H](CCC(N)=O)NC(=O)[C@@H](NC(=O)[C@H](Cc1c[nH]cn1)NC(=O)[C@H](CCC(N)=O)NC(=O)[C@H](CC(=O)O)NC(=O)[C@H](CCC(=O)O)NC(=O)[C@H](CC(=O)O)NC(=O)CCC(=O)NCCCOCCOCCOCCCNC(=O)CCCC[C@@H]1SC[C@@H]2NC(=O)N[C@@H]21)[C@@H](C)O)C(=O)N[C@H](C(=O)N[C@@H](CCCCN)C(=O)N[C@H](C(=O)O)C(C)C)[C@@H](C)O [PTEN_11]
NHERF2 PDZ 1
  BI: 0.099
MAGI2-1
  BI: -0.04
  LogKD: 3.519
INADL-9
  BI: 0.014
  LogKD: 3.519
DLG4-2
  BI: 0.124
NHERF2 PDZ 2
  Kd: 35.3 µM
  BI: 0.476
DLG3-1
  BI: 0
  LogKD: 3.519
GRIP2-1
  BI: -0.003
  LogKD: 3.519
INADL-3
  BI: -0.001
  LogKD: 3.519
GRIP2-7
  BI: -0.067
  LogKD: 3.519
DLG5-3
  BI: 0.034
  LogKD: 3.519
MAGIX-1
  BI: 0.014
  LogKD: 3.519
DLG1-3
  BI: 0.044
  LogKD: 3.519
IL16-2
  BI: -0.132
  LogKD: 3.519
IL16-1
  BI: -0.017
  LogKD: 3.519
PARD3 PDZ 3
  KD (affinity measured by holdup): 160 µM
  BI: -0.078
SNX27 PDZ 1
  Kd: 13.8 µM
LIN7C-1
  BI: -0.041
  LogKD: 3.519
GRIP1-4
  BI: 0.028
  LogKD: 3.519
FRMPD4-1
  BI: -0.004
  LogKD: 3.519
HTRA2-1
  BI: 0.07
  LogKD: 3.519
MAST1 PDZ 1
  Kd: 38.5 µM
  BI: 0.455
ARHGEF11-1
  BI: 0.026
  LogKD: 3.519
INADL-8
  BI: 0.388
  Kd: 51.2 µM
INADL-2
  BI: 0.007
  LogKD: 3.519
LNX1-2
  BI: 0.105

## CC[C@H](C)[C@H](NC(=O)[C@H](CCC(N)=O)NC(=O)[C@@H](NC(=O)[C@H](Cc1c[nH]cn1)NC(=O)[C@H](CCC(N)=O)NC(=O)[C@H](CC(=O)O)NC(=O)[C@H](CCC(=O)O)NC(=O)[C@H](CC(=O)O)NC(=O)CCC(=O)NCCCOCCOCCOCCCNC(=O)CCCC[C@@H]1SC[C@@H]2NC(=O)N[C@@H]21)[C@@H](C)O)C(=O)N[C@H](C(=O)N[C@@H](CCCCNC(C)=O)C(=O)N[C@H](C(=O)O)C(C)C)[C@@H](C)O [PTEN_Ac]
NHERF2 PDZ 1
  BI: 0.078
MAGI2-1
  BI: 0.014
  LogKD: 3.605
INADL-9
  BI: 0.072
  LogKD: 3.605
NHERF2 PDZ 2
  BI: 0.066
DLG3-1
  BI: 0.013
  LogKD: 3.605
GRIP2-1
  BI: -0.038
  LogKD: 3.605
INADL-3
  BI: -0.021
  LogKD: 3.605
GRIP2-7
  BI: -0.07
  LogKD: 3.605
DLG5-3
  BI: -0.047
  LogKD: 3.605
MAGIX-1
  BI: -0.034
  LogKD: 3.605
DLG1-3
  BI: -0.088
  LogKD: 3.605
IL16-2
  BI: -0.157
  LogKD: 3.605
IL16-1
  BI: 0.039
  LogKD: 3.605
PARD3 PDZ 3
  BI: 0.104
SNX27 PDZ 1
  Kd: 4.03 µM
  BI: 0.859
LIN7C-1
  BI: 0.012
  LogKD: 3.605
GRIP1-4
  BI: 0.038
  LogKD: 3.605
FRMPD4-1
  BI: -0.076
  LogKD: 3.605
HTRA2-1
  BI: -0.074
  LogKD: 3.605
MAST1 PDZ 1
  Kd: 26.3 µM
  BI: 0.497
ARHGEF11-1
  BI: 0.428
  Kd: 35.1 µM
INADL-8
  BI: 0.509
  Kd: 25 µM
LNX1-2
  BI: 0.164

## CC[C@H](C)[C@H](NC(=O)[C@H](CCC(N)=O)NC(=O)[C@@H](NC(=O)[C@H](Cc1c[nH]cn1)NC(=O)[C@H](CCC(N)=O)NC(=O)[C@H](CC(=O)O)NC(=O)[C@H](CCC(=O)O)NC(=O)[C@H](CC(=O)O)NC(=O)CCC(=O)NCCCOCCOCCOCCCNC(=O)CCCC[C@@H]1SC[C@@H]2NC(=O)N[C@@H]21)[C@@H](C)O)C(=O)N[C@H](C(=O)N[C@@H](CCCNC(=N)N)C(=O)N[C@H](C(=O)O)C(C)C)[C@@H](C)O [PTEN_KR] ({X1-Suc}-DEDQHTQITRV-OH)
NHERF2 PDZ 1
  BI: 0.169
MAGI2-1
  BI: -0.074
  LogKD: 3.655
INADL-9
  BI: 0.068
  LogKD: 3.655
DLG4-2
  BI: 0.284
  Kd: 60.2 µM
NHERF2 PDZ 2
  Kd: 20.9 µM
  BI: 0.523
DLG3-1
  BI: 0.066
  LogKD: 3.655
GRIP2-1
  BI: -0.04
  LogKD: 3.655
INADL-3
  BI: -0.042
  LogKD: 3.655
GRIP2-7
  BI: -0.066
  LogKD: 3.655
DLG5-3
  BI: -0.084
  LogKD: 3.655
MAGIX-1
  BI: 0.018
  LogKD: 3.655
DLG1-3
  BI: 0.077
  LogKD: 3.655
IL16-2
  BI: -0.114
  LogKD: 3.655
IL16-1
  BI: 0.06
  LogKD: 3.655
PARD3 PDZ 3
  KD (affinity measured by holdup): 56 µM
  BI: 0.044
SNX27 PDZ 1
  Kd: 8.32 µM
  BI: 0.67
LIN7C-1
  BI: -0.071
  LogKD: 3.655
GRIP1-4
  BI: -0.042
  LogKD: 3.655
FRMPD4-1
  BI: -0.051
  LogKD: 3.655
HTRA2-1
  BI: -0.042
  LogKD: 3.655
MAST1 PDZ 1
  Kd: 32.2 µM
  BI: 0.42
ARHGEF11-1
  BI: 0.18
INADL-8
  BI: 0.532
  Kd: 20.1 µM
INADL-2
  BI: 0.064
  LogKD: 3.655
